Results taken from patent US9193744B2, “Heterocyclic nuclear hormone receptor modulators” (AbbVie Inc., priority 2012, dated 2015).
Like-named read-outs stand apart in the source and are kept apart here.

Key:
[1] = tested on: IL-6; assay: A549 Cell Assay to Measure Inflammation Markers (inhibition of IL-1β-induced IL-6); format: cell-based; conditions: A549 cells, read-out: A549 cell assay
Experimental: A549 Cell Assay to Measure Inflammation Markers
A549 cells were seeded (3E4 cells/well) in 96-well assay plates in culture medium (100 μL/well., F-12 K base media, supplemented with 10% FBS and 100 μ/mL-100 μg/mL Pen-Strep.) After overnight culture in an incubator set to 37° C., 4.9% CO2, and 90% humidity, media was removed from adherent cells by aspiration and replaced with 100 μL/well Assay Medium (F-12 K base media supplemented with 5% charcoal stripped calf sera and 100 U/mL-100 μg/mL Pen-Strep.) Compounds were prepared in DMSO and serial diluted (1:3, 1:4, or 1:5) with DMSO in Dilution Plate(s) to give 10 dilution points for each compound tested. Further dilution (1:250) of compound was made into assay medium and 50 μL/well diluted drug or DMSO/media control was applied to cells. After a 1 h pre-incubation in a temperature, CO2, and humidity controlled incubator, set to 37° C., 50 μL/well of 4 ng/mL IL-1β diluted in assay media, was applied to cultures. Assay plates, with a final volume of 200 μL/well and final concentrations of 0.1% DMSO and 1 ng/mL IL-1β were returned to incubator for a four h incubation period. Next, plates were spun at 183 g (1000 rpm in Beckman/Coulter Allegra 6KR centrifuge) for 10 min. Cell-free supernatant (150 μL/well) was collected and IL-6 was measured by MSD kit, following protocol of manufacturer, and using MSD SECTOR Imager 6000 instrument. Potency of compounds to inhibit IL-6 was determined using the percent reduction of measured IL-6 in wells with compound compared to control wells without drug, and relative to (100% inhibition) positive control compound of 1 μM prednisolone. Results were represented as IC50 and Emax values. To verify that viable cell numbers were similar across plate(s), and not confounding compound IC50 data interpretation, the remaining 50 μL/well of cells and media (after removal of supernatant) were used to run Cell Titer-Glo Assay per directions of manufacturer.

[2] = biological target: T1, Glucocorticoid Receptor (GR) (Homo sapiens, UniProt P04150); assay: GR Fluorescence Polarization Assay (PolarScreen Glucocorticoid Receptor Competitor Assay, Red); conditions: fluorescence polarization binding ranges
T1 construct: purchased Invitrogen P2893
T1 sequence (P04150 1-777): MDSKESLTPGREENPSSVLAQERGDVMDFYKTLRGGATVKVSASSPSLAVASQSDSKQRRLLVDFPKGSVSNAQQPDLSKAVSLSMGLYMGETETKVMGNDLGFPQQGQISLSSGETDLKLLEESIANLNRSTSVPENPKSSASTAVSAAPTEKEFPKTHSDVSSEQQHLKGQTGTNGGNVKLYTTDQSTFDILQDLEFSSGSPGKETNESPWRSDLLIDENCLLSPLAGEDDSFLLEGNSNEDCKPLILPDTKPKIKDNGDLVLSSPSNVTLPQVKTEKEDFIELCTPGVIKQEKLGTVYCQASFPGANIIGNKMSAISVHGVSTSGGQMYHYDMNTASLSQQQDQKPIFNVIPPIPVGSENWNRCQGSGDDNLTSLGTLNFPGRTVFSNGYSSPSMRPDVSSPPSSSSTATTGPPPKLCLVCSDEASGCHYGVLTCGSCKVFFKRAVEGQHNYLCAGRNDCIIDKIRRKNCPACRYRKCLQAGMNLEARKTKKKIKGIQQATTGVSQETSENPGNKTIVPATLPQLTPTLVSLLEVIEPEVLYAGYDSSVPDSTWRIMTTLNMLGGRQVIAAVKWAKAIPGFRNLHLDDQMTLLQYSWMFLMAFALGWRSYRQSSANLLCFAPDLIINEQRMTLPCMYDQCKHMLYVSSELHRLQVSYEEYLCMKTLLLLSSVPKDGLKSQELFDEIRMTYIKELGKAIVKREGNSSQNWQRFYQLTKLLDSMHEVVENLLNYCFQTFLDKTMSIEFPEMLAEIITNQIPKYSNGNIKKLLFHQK
Experimental: Fluorescence polarization assays were carried out using the PolarScreen™ Glucocorticoid Receptor Competitor Assay, Red from Invitrogen (P2893). The assay buffer was prepared according to the manufacturer's protocol and used to dilute the fluorescent glucocorticoid and GR. Compounds were prepared and serial diluted 1:4 in DMSO. Compound, fluorescent glucocorticoid and GR were added in a final volume of 20 μL and incubated overnight at 4° C. Fluorescent polarization was measured on the PerkinElmer Envision®. Fluorescence polarization binding ranges measured using GR Fluorescence Polarization Assay: […]

CC[C@@]12CC[C@](O)(COC)C[C@@H]1CCOc1cc3c(cnn3-c3ccncc3)cc12 [Example 134]
IC50 ([1]; Homo sapiens): < 100 nM | IC50 [2]: < 100 nM

N#CC[C@]12CC[C@@](O)(C(F)(F)F)C[C@@H]1CCCc1cc3c(cnn3-c3ccc(F)cc3)cc12 (single isomer, unassigned) [Example 82]
IC50 ([1]; Homo sapiens): 100 to 1000 nM | IC50 [2]: < 100 nM

CC[C@]12CC[C@@](O)(COC)C[C@H]1CCCc1cc3c(cnn3-c3ccccn3)cc12 [Example 46]
IC50 [1]: > 10000 nM | IC50 [2]: 100 to 1000 nM

C[C@@]1(O)CC[C@@]2(Cc3ccccn3)c3cc4cnn(-c5ccc(F)cc5)c4cc3CCC[C@H]2C1 (single isomer, unassigned) [Example 15]
IC50 ([1]; Homo sapiens): < 100 nM | IC50 [2]: < 100 nM

CC[C@@]12CC[C@](O)(COC)C[C@@H]1CCOc1cc3c(cnn3-c3nnc(C)s3)cc12 (racemic) [Example 139]
IC50 [2]: 100 to 1000 nM

CC(=O)NC[C@@]12CC[C@](O)(C(F)(F)F)C[C@H]1CCCc1cc3c(cnn3-c3ccc(F)cc3)cc12 (single isomer, unassigned) [Example 84]
IC50 ([1]; Homo sapiens): < 100 nM | IC50 [2]: < 100 nM

C[C@]1(O)CC[C@]2(Cc3ncccn3)c3cc4cnn(-c5ccc(F)cc5)c4nc3CCC[C@@H]2C1 [Example 162]
IC50 [1]: 1000 to 10000 nM | IC50 [2]: 100 to 1000 nM

CC[C@]12CC[C@@](OP(=O)(O)O)(C(F)(F)F)C[C@@H]1CCCc1cc3c(cnn3-c3ccc(F)cc3)cc12 [Example 101, (3S,4aS,12bS)-12b-Ethyl-9-(4-fluorophenyl)-3-(trifluoromethyl)-1,2,3,4,4a,5,6,7,9,12b-decahydrobenzo[6,7]cyclohepta[1,2-f]indazol-3-yl dihydrogen phosphate]
IC50 [2]: 100 to 1000 nM

CCOC[C@]1(O)CC[C@]2(Cc3ccccn3)c3cc4cnn(-c5ccc(F)cc5)c4cc3CCC[C@@H]2C1 [Example 33]
IC50 [1]: < 100 nM | IC50 [2]: < 100 nM

COC[C@]1(O)CC[C@]2(CC3CC3)c3cc4cnn(-c5ccc(F)cc5)c4cc3CCC[C@@H]2C1 [Example 39]
IC50 [1]: < 100 nM | IC50 [2]: < 100 nM

CC[C@@]12CC(=O)[C@](C)(O)C[C@@H]1CCCc1cc3c(cnn3-c3ccc(F)cc3)cc12 (racemic) [Example 100, rac-(3R,4aS,12bR)-12b-Ethyl-9-(4-fluorophenyl)-3-hydroxy-3-methyl-1,3,4,4a,5,6,7,12b-octahydrobenzo[6,7]cyclohepta[1,2-f]indazol-2(9H)-one]
IC50 ([1]; Homo sapiens): < 100 nM | IC50 [2]: < 100 nM

CC[C@]12C[C@](C)(O)[C@@](O)(C(F)(F)F)C[C@@H]1CCCc1cc3c(cnn3-c3ccc(F)cc3)cc12 (single isomer, unassigned) [Example 118]
IC50 ([1]; Homo sapiens): 100 to 1000 nM | IC50 [2]: < 100 nM

CC[C@]12CC[C@@](OCC(N)=O)(C(F)(F)F)C[C@@H]1CCCc1cc3c(cnn3-c3ccc(F)cc3)cc12 [Example 171, 2-(((3S,4aS,12bS)-12b-Ethyl-9-(4-fluorophenyl)-3-(trifluoromethyl)-1,2,3,4,4a,5,6,7,9,12b-decahydrobenzo[6,7]cyclohepta[1,2-f]indazol-3-yl)oxy)acetamide]
IC50 ([1]; Homo sapiens): < 100 nM | IC50 [2]: < 100 nM

CC[C@@]12CC[C@](O)(COC)C[C@@H]1CCCc1cc3c(cnn3-c3cccnc3)cc12 [Example 44]
IC50 [1]: < 100 nM | IC50 [2]: < 100 nM

O=C(NC1CC1)[C@@]12CC[C@](O)(C(F)(F)F)C[C@H]1CCCc1cc3c(cnn3-c3ccc(F)cc3)cc12 (single isomer, unassigned) [Example 86]
IC50 [2]: 100 to 1000 nM

CC[C@@]12CC(=O)[C@](O)(C(F)(F)F)C[C@H]1CCCc1cc3c(cnn3-c3ccc(F)cc3)cc12 (single isomer, unassigned) [Example 115]
IC50 ([1]; Homo sapiens): 100 to 1000 nM | IC50 [2]: 100 to 1000 nM

N#CC[C@]1(O)CC[C@]2(Cc3ncccn3)c3cc4cnn(-c5ccc(F)cc5)c4nc3CCC[C@@H]2C1 [Example 160]
IC50 [1]: < 100 nM | IC50 [2]: < 100 nM

CC[C@@]12CC[C@](O)(C(F)(F)F)[C@@H](O)[C@@H]1CCCc1cc3c(cnn3-c3ccc(F)cc3)cc12 (single isomer, unassigned) [Example 96]
IC50 ([1]; Homo sapiens): < 100 nM | IC50 [2]: < 100 nM

CC#C[C@]1(O)CC[C@]2(CC)c3cc4cnn(-c5ccc(F)cc5)c4cc3CCC[C@H]2C1 [Example 112]
IC50 [1]: < 100 nM | IC50 [2]: 100 to 1000 nM

CC[C@@]12CC[C@](O)(C(F)(F)F)C[C@H]1CCOc1cc3c(cnn3-c3ccc(F)cc3)cc12 (single isomer, unassigned) [Example 146]
IC50 ([1]; Homo sapiens): < 100 nM | IC50 [2]: < 100 nM

CC[C@@]12CC[C@@](C)(O)C[C@@H]1CCOc1cc3c(cnn3-c3ccnc(C)c3)cc12 [Example 143]
IC50 ([1]; Homo sapiens): < 100 nM | IC50 [2]: < 100 nM

CCOC[C@@]1(O)CC[C@@]2(Cc3ccccn3)c3cc4cnn(-c5ccc(F)cc5)c4cc3CCC[C@H]2C1 [Example 32]
IC50 [1]: < 100 nM | IC50 [2]: < 100 nM

CC[C@]12CC[C@@](O)(C(F)(F)F)C[C@@H]1CCCc1nc3c(cnn3-c3ccc(F)cc3)cc12 (single isomer, unassigned) [Example 153]
IC50 ([1]; Homo sapiens): > 10000 nM | IC50 [2]: 100 to 1000 nM

CC[C@]12CC[C@](C)(O)C[C@H]1CCOc1cc3c(cnn3-c3ccnc(C)c3)cc12 [Example 142]
IC50 [2]: 100 to 1000 nM

CC[C@]12CC[C@@](OS(N)(=O)=O)(C(F)(F)F)C[C@@H]1CCCc1cc3c(cnn3-c3ccc(F)cc3)cc12 [Example 170, (3S,4aS,12bS)-12b-ethyl-9-(4-fluorophenyl)-3-(trifluoromethyl)-1,2,3,4,4a,5,6,7,9,12b-decahydrobenzo[6,7]cyclohepta[1,2-f]indazol-3-yl sulfamate]
IC50 [2]: 100 to 1000 nM

N#CC[C@]1(O)CC[C@]2(Cc3ccccn3)c3cc4cnn(-c5ccc(F)cc5)c4nc3CCC[C@@H]2C1 [Example 164]
IC50 [2]: 100 to 1000 nM

Cc1cc(-n2ncc3cc4c(cc32)CCC[C@@H]2C[C@@](C)(O)CC[C@]42Cc2ccccn2)ccn1 [Example 61]
IC50 [2]: 100 to 1000 nM

C[C@]1(O)CC[C@]2(Cc3ccccn3)c3cc4cnn(-c5ccc(F)cc5)c4nc3CCC[C@@H]2C1 (single isomer, unassigned) [Example 150]
IC50 [2]: 100 to 1000 nM

CC[C@]12CC[C@@](O)(COC)C[C@H]1CCOc1cc3c(cnn3-c3ccnc(C(F)(F)F)c3)cc12 [Example 140]
IC50 [2]: 100 to 1000 nM

CC[C@]12CC[C@@](O)(COC)C[C@H]1CCOc1cc3c(cnn3-c3ccnc(C)c3)cc12 (single isomer, unassigned) [Example 127]
IC50 [2]: 100 to 1000 nM

Cc1cc(-n2ncc3cc4c(cc32)CCC[C@H]2C[C@@](O)(CC#N)CC[C@@]42Cc2ccccn2)ccn1 [Example 70]
IC50 [1]: < 100 nM

COC[C@]1(O)CC[C@]2(Cc3ccccn3)c3cc4cnn(-c5ccc(F)cc5)c4nc3CCC[C@H]2C1 [Example 157]
IC50 [2]: 100 to 1000 nM

C[C@@]1(O)CC[C@@]2(Cc3ncccn3)c3cc4cnn(-c5ccc(F)cc5)c4nc3CCC[C@H]2C1 [Example 161]
IC50 [2]: 100 to 1000 nM

CC[C@]12CC[C@@](O)(COC)C[C@H]1CCOc1cc3c(cnn3-c3ccnc(OC)c3)cc12 [Example 137]
IC50 [2]: 1000 to 10000 nM

COC[C@]1(O)CC[C@]2(Cc3ncccn3)c3cc4cnn(-c5ccc(F)cc5)c4nc3CCC[C@@H]2C1 [Example 159]
IC50 [2]: 100 to 1000 nM

CC[C@]12CC[C@@](O)(CC#N)C[C@H]1CCOc1cc3c(cnn3-c3ccnc(C)c3)cc12 [Example 144]
IC50 [2]: 100 to 1000 nM
